Legend:
[1] = acute oral toxicity (LD 50); details: mouse, in vivo, mice
Text: The components of the invention benefit from a good tolerance and a weak toxicity. […] 1, in mice.

[2] = anticonvulsive activity, test with pentetrazol; type: in vivo, mice (male CD1); details: Mus musculus, 0.5 h; oral route, 30 minutes before pentetrazol 135 mg/kg s.c.; dose which avoids attacks in half of the animals; read-out: DE50 (the source's name)
Description: This activity has been studied by the test with pentetrazol, according to the method of EVERETT and RICHARDS (J. Pharm. Exp. Ther. 1944, 81, 402-407).
Thus the DE50 is determined, which is the dose which avoids the appearance of attacks in half of the animals. The DE 50 has been calculated by the method of D. K. Finney (Probit analysis; University Press; Cambridge; 1971).

[3] = locomotive activity, photoelectric cell actimeter; type: in vivo, mice (male CD1); details: 32 mg/kg O.R.; untreated mice 553 ± 200; P <0.05 (Student test)
Description: The mice (male CD1 20-25 g) are placed in groups of three in the cages of a photoelectric cell actimeter. After 30 minutes of getting used to the enclosure, the animas are treated by oral route with the product under test in suspension in carboxymethylcellulose at 1%. A control set of untreated mice receive only the vehicle. Each set contains 12 groups of 3 mice. The movement activity responses are recorded for 80 minutes.

[4] = antagonist activity vis a vis the hypnotic effects of benzodiazepines; details: 25 mg/kg i.p., 15 minutes before diazepam 6 mg/kg i.p.; control 97 ± 12; * P < 0.05 vs control

| SMILES | LD50 [1] | ED50 [2] | Movement Activity for 80 min [3] | Length of sleep [4] |
| --- | --- | --- | --- | --- |
| CCCNC(=O)c1cn(COC)c2ccccc2c1=O [derivative no. 1, 1-methoxymethyl-4-oxo-1,4-dihydro-quinoline 3-(N-propyl)carboxamide] | 1100 mg/kg | 55 mg/kg | 1842 ± 470 | 39 ± 20 min |
| CCNC(=O)c1cn(COC)c2ccccc2c1=O [derivative no. 3, 1-methoxymethyl-4-oxo-1,4-dihydro-quinoline 3-(N-ethyl)carboxamide] | – | – | – | 9 ± 4 min |
| COCn1cc(C(=O)NCC(C)C)c(=O)c2ccccc21 [derivative no. 5, 1-methoxymethyl-4-oxo-1,4-dihydro-quinoline 3-(N-isobutyl)carboxamide] | – | 46 mg/kg | – | 62 ± 10 min |
| COCn1cc(C(=O)NC2CC2)c(=O)c2ccccc21 [derivative no. 7, 1-methoxymethyl-4-oxo-1,4-dihydro-quinoline 3-(N-cyclopropyl)carboxamide] | – | 67 mg/kg | – | 32 ± 11 min |
| COCn1cc(C(=O)NC2CCCC2)c(=O)c2ccccc21 [derivative no. 8, 1-methoxymethyl-4-oxo-1,4-dihydro-quinoline 3-(N-cyclopentyl)carboxamide] | – | 108 mg/kg | – | – |
| CCCNC(=O)c1cn(COC)c2ccc(F)cc2c1=O [derivative no. 9, 1-methoxymethyl-4-oxo-6-fluoro-1,4-dihydro-quinoline 3-(N-propyl)carboxamide] | – | 62 mg/kg | – | 22 ± 8 min |
| CCCNC(=O)c1cn(COC)c2c(F)cccc2c1=O [derivative no. 10, 1-methoxymethyl-4-oxo-8-fluoro-1,4-dihydro-quinoline 3-(N-propyl)carboxamide] | – | 53 mg/kg | – | – |
| CCCNC(=O)c1cn(COC)c2c(Cl)cccc2c1=O [derivative no. 11, 1-methoxymethyl-4-oxo-8-chloro-1,4-dihydro-quinoline 3-(N-propyl)carboxamide] | – | 21 mg/kg | – | – |
| CCCNC(=O)c1cn(COC)c2ccc(OC)cc2c1=O [derivative no. 12, 1-methoxymethyl-4-oxo-6-methoxy-1,4-dihydro-quinoline 3-(N-propyl)carboxamide] | – | 65 mg/kg | – | – |
| CCCNC(=O)c1cn(COCC)c2ccccc2c1=O [derivative no. 13, 1-ethoxymethyl-4-oxo-1,4-dihydro-quinoline 3-(N-propyl)carboxamide] | – | 75 mg/kg | – | – |
| CCCNC(=O)c1cn(CCOCC)c2ccccc2c1=O [derivative no. 14, 1-ethoxyethyl-4-oxo-1,4-dihydro-quinoline 3-(N-propyl)carboxamide] | – | 79 mg/kg | – | – |
| CCCNC(=O)c1cn(CCOC)c2ccccc2c1=O [derivative no. 15, 1-methoxyethyl-4-oxo-1,4-dihydro-quinoline 3-(N-propyl)carboxamide] | – | 50 mg/kg | – | – |
| CCC1(c2ccccc2)C(=O)NC(=O)NC1=O [phenobarbital, reference compound] | – | 10 mg/kg | – | – |
| CCCC(CCC)C(=O)[O-].[Na+] [sodium valproate, reference compound] | – | 200 mg/kg | – | – |

Source: patent publication US4835163A, “N-alkoxyalkyl derivatives of quinolone carboxamides” (Sanofi, priority 1986, dated 1989)
